Active and inactive are the calls of the source. The calls are words filed in the database; no cut-off is given here.
Tests used:
[1] = molecular target: T1, Toll-like receptor 8 (Homo sapiens) (UniProt Q9NR97); experiment: Activation of human TLR8 expressed in HEK293 cells assessed as increase in NF-kappaB activation at 100 ug/ml by SEAP assay; type: cell-based
T1 sequence (whole entry): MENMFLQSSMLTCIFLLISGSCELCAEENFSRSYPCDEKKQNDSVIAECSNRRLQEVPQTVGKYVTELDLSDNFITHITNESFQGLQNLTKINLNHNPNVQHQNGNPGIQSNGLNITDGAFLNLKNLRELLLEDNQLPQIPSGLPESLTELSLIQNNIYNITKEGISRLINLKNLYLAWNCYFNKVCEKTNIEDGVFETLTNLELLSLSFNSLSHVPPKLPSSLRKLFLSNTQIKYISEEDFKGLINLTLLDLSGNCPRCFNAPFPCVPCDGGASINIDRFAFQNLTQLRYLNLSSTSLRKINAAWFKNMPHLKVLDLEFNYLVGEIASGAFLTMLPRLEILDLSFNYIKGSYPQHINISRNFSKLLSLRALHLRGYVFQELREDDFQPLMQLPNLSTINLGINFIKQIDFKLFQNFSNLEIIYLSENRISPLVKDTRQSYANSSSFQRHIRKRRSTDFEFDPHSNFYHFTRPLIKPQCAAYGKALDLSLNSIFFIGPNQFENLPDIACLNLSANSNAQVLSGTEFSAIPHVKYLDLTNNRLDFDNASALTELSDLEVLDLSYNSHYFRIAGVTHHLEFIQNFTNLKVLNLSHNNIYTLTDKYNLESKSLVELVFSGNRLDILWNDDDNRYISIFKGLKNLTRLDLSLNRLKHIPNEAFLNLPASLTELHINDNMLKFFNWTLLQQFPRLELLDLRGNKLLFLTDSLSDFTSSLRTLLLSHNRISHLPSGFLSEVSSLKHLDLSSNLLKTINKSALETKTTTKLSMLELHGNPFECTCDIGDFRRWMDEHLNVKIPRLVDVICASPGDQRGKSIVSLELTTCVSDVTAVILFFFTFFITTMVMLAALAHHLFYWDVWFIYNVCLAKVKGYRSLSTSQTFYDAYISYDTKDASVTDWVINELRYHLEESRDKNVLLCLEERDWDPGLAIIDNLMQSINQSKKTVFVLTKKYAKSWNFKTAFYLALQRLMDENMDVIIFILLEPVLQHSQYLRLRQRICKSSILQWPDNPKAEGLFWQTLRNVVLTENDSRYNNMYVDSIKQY

[2] = Stability in 1% human serum assessed as full length product after 10 mins; type: ADME, cell-free
[3] = molecular target: T2, Toll-like receptor 7 (Homo sapiens) (UniProt Q9NYK1); experiment: Activation of human TLR7 expressed in HEK293 cells assessed as increase in NF-kappaB activation at 100 ug/ml by SEAP assay; type: cell-based
T2 sequence (whole entry): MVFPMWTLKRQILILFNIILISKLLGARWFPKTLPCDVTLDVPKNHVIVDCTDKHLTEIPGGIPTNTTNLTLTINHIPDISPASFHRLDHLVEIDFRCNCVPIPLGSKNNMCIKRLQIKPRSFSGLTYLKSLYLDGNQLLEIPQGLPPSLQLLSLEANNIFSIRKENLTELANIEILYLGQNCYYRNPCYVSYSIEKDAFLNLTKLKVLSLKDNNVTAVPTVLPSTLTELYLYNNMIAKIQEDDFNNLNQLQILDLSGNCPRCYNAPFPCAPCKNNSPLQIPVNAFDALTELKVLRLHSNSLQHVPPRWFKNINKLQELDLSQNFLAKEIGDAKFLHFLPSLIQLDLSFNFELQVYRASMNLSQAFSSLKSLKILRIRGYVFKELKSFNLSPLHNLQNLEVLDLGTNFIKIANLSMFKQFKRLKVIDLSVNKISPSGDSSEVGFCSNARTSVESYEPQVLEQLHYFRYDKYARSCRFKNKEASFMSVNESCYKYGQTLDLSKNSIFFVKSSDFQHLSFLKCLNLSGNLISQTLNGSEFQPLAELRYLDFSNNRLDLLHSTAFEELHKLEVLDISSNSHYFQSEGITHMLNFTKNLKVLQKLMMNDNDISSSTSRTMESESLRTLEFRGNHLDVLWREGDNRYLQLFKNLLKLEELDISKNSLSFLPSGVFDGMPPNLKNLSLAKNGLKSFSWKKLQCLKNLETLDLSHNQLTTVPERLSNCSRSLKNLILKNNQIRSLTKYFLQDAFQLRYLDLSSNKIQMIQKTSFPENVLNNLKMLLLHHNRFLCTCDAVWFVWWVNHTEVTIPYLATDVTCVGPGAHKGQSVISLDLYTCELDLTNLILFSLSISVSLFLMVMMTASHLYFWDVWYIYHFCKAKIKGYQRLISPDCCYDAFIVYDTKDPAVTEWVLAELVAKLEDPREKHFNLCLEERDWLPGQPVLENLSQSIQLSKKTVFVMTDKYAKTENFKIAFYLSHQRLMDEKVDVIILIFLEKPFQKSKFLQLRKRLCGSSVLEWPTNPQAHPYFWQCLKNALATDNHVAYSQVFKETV

Q: With Nc1ccn([C@@H]2O[C@H](CO)[C@@H](OP(O)(=S)OC[C@H]3O[C@@H](n4ccc(=O)[nH]c4=O)[C@H](O)[C@@H]3OP(O)(=S)OC[C@H]3O[C@@H](n4ccc(=O)[nH]c4=O)[C@H](O)[C@@H]3OP(O)(=S)OC[C@H]3O[C@@H](n4ccc(=O)[nH]c4=O)[C@H](O)[C@@H]3OP(O)(=S)OC[C@H]3O[C@@H](n4cnc5c(=O)[nH]c(N)nc54)[C@H](O)[C@@H]3OP(O)(=S)OC[C@H]3O[C@@H](n4cnc5c(=O)[nH]c(N)nc54)[C@H](O)[C@@H]3OP(O)(=S)OC[C@H]3O[C@@H](n4ccc(=O)[nH]c4=O)[C@H](O)[C@@H]3OP(O)(=S)OC[C@H]3O[C@@H](n4cnc5c(=O)[nH]c(N)nc54)[C@H](O)[C@@H]3OP(O)(=S)OC[C@H]3O[C@@H](n4ccc(=O)[nH]c4=O)[C@H](O)[C@@H]3OP(O)(=S)OC[C@H]3O[C@@H](n4cnc5c(=O)[nH]c(N)nc54)[C@H](O)[C@@H]3OP(O)(=S)OC[C@H]3O[C@@H](n4ccc(=O)[nH]c4=O)[C@H](O)[C@@H]3OP(O)(=S)OCC(O)COP(O)(=S)O[C@H]3[C@@H](O)[C@H](n4ccc(=O)[nH]c4=O)O[C@@H]3COP(O)(=S)O[C@H]3[C@@H](O)[C@H](n4cnc5c(=O)[nH]c(N)nc54)O[C@@H]3COP(O)(=S)O[C@H]3[C@@H](O)[C@H](n4ccc(=O)[nH]c4=O)O[C@@H]3COP(O)(=S)O[C@H]3[C@@H](O)[C@H](n4cnc5c(=O)[nH]c(N)nc54)O[C@@H]3COP(O)(=S)O[C@H]3[C@@H](O)[C@H](n4ccc(=O)[nH]c4=O)O[C@@H]3COP(O)(=S)O[C@H]3[C@@H](O)[C@H](n4cnc5c(=O)[nH]c(N)nc54)O[C@@H]3COP(O)(=S)O[C@H]3[C@@H](O)[C@H](n4cnc5c(=O)[nH]c(N)nc54)O[C@@H]3COP(O)(=S)O[C@H]3[C@@H](O)[C@H](n4ccc(=O)[nH]c4=O)O[C@@H]3COP(O)(=S)O[C@H]3[C@@H](O)[C@H](n4ccc(=O)[nH]c4=O)O[C@@H]3COP(O)(=S)O[C@H]3[C@@H](O)[C@H](n4ccc(=O)[nH]c4=O)O[C@@H]3COP(O)(=S)O[C@H]3[C@@H](O)[C@H](n4ccc(N)nc4=O)O[C@@H]3CO)[C@H]2O)c(=O)n1 (stereo partly specified) as the compound, how does the Activity [1] read?
A: The Activity was “inactive”.

Q: And the remaining at 10 min ([2]; read-out: Activity)?
A: Its remaining at 10 min is 79%.

Q: Which results are given for Nc1ccn([C@@H]2O[C@H](COP(O)(=S)O[C@H]3[C@@H](O)[C@H](n4ccc(N)nc4=O)O[C@@H]3COP(O)(=S)O[C@H]3[C@@H](O)[C@H](n4cnc5c(=O)[nH]c(N)nc54)O[C@@H]3COP(O)(=S)O[C@H]3[C@@H](O)[C@H](n4ccc(N)nc4=O)O[C@@H]3COP(O)(=S)O[C@H]3[C@@H](O)[C@H](n4ccc(=O)[nH]c4=O)O[C@@H]3COP(O)(=S)O[C@H]3[C@@H](O)[C@H](n4cnc5c(N)ncnc54)O[C@@H]3COP(O)(=S)O[C@H]3[C@@H](O)[C@H](n4ccc(N)nc4=O)O[C@@H]3COP(O)(=S)O[C@H]3[C@@H](O)[C@H](n4cnc5c(N)ncnc54)O[C@@H]3COP(O)(=S)O[C@H]3[C@@H](O)[C@H](n4cnc5c(=O)[nH]c(N)nc54)O[C@@H]3COP(O)(=S)O[C@H]3[C@@H](O)[C@H](n4cnc5c(N)ncnc54)O[C@@H]3COP(O)(=S)O[C@H]3[C@@H](O)[C@H](n4cnc5c(N)ncnc54)O[C@@H]3CO)[C@@H](OP(O)(=S)OC[C@H]3O[C@@H](n4ccc(=O)[nH]c4=O)[C@H](O)[C@@H]3OP(O)(=S)OC[C@H]3O[C@@H](n4cnc5c(=O)[nH]c(N)nc54)[C@H](O)[C@@H]3OP(O)(=S)OC[C@H]3O[C@@H](n4cnc5c(=O)[nH]c(N)nc54)[C@H](O)[C@@H]3OP(O)(=S)OC[C@H]3O[C@@H](n4ccc(=O)[nH]c4=O)[C@H](O)[C@@H]3OP(O)(=S)OC[C@H]3O[C@@H](n4ccc(=O)[nH]c4=O)[C@H](O)[C@@H]3OP(O)(=S)OC[C@H]3O[C@@H](n4cnc5c(N)ncnc54)[C@H](O)[C@@H]3O)[C@H]2O)c(=O)n1 (stereo partly specified)?
A: Activity [3]: inactive; remaining at 10 min ([2]; read-out: Stability): 1%

Q: Which Activity [3] does the source give for Nc1ccn([C@@H]2O[C@H](COP(O)(=S)O[C@H]3[C@@H](O)[C@H](n4ccc(=O)[nH]c4=O)O[C@@H]3COP(O)(=S)O[C@H]3[C@@H](O)[C@H](n4ccc(N)nc4=O)O[C@@H]3COP(O)(=S)O[C@H]3[C@@H](O)[C@H](n4cnc5c(N)ncnc54)O[C@@H]3COP(O)(=S)O[C@H]3[C@@H](O)[C@H](n4cnc5c(=O)[nH]c(N)nc54)O[C@@H]3COP(O)(=S)O[C@H]3[C@@H](O)[C@H](n4ccc(=O)[nH]c4=O)O[C@@H]3COP(O)(=S)O[C@H]3[C@@H](O)[C@H](n4cnc5c(=O)[nH]c(N)nc54)O[C@@H]3COP(O)(=S)O[C@H]3[C@@H](O)[C@H](n4ccc(=O)[nH]c4=O)O[C@@H]3COP(O)(=S)O[C@H]3[C@@H](O)[C@H](n4cnc5c(=O)[nH]c(N)nc54)O[C@@H]3COP(O)(=S)O[C@H]3[C@@H](O)[C@H](n4ccc(=O)[nH]c4=O)O[C@@H]3COP(O)(=S)O[C@H]3[C@@H](O)[C@H](n4ccc(=O)[nH]c4=O)O[C@@H]3COP(O)(=S)O[C@H]3[C@@H](O)[C@H](n4cnc5c(=O)[nH]c(N)nc54)O[C@@H]3COP(O)(=S)O[C@H]3[C@@H](O)[C@H](n4ccc(=O)[nH]c4=O)O[C@@H]3COP(O)(=S)O[C@H]3[C@@H](O)[C@H](n4ccc(N)nc4=O)O[C@@H]3COP(O)(=S)O[C@H]3[C@@H](O)[C@H](n4ccc(=O)[nH]c4=O)O[C@@H]3COP(O)(=S)O[C@H]3[C@@H](O)[C@H](n4cnc5c(=O)[nH]c(N)nc54)O[C@@H]3COP(O)(=S)O[C@H]3[C@@H](O)[C@H](n4ccc(N)nc4=O)O[C@@H]3COP(O)(=S)O[C@H]3[C@@H](O)[C@H](n4ccc(N)nc4=O)O[C@@H]3COP(O)(=S)O[C@H]3[C@@H](O)[C@H](n4ccc(N)nc4=O)O[C@@H]3COP(O)(=S)O[C@H]3[C@@H](O)[C@H](n4cnc5c(=O)[nH]c(N)nc54)O[C@@H]3CO)[C@@H](O)[C@H]2O)c(=O)n1 (stereo partly specified) here?
A: Its Activity is “inactive”.

Q: What about the remaining at 10 min ([2]; read-out: Stability) of the same compound?
A: Its remaining at 10 min is 47%.
